Earlier results in US6747151B2, “Azo compounds for type I phototherapy” (Mallinckrodt, Inc., priority 2001, dated 2004).

Tests used:
[1] = tested on: tumors; conditions: after administration
[2] = tested on: melanoma cells; conditions: after administration

NCC(=O)CCC(=O)O [delta-aminolevulinic acid]
uptake of porphyrins in tumors compared to normal tissues [1]: two-fold

dihydroxyindole-2-carboxylic acid
levels of melanin in melanoma cells compared to normal cells [2]: substantially enhanced
